Reference: ChEMBL document CHEMBL1137822 (J Med Chem, 2004)

What was measured:
Cholinesterase = Cholinesterase (Homo sapiens, UniProt P06276); test: Inhibitory concentration against human serum butyrylcholinesterase activity
Acetylcholinesterase = Acetylcholinesterase (Homo sapiens, UniProt P22303); test: Inhibitory concentration against human serum acetylcholinesterase activity
Chain of Acetylcholinesterase (P22303 whole entry): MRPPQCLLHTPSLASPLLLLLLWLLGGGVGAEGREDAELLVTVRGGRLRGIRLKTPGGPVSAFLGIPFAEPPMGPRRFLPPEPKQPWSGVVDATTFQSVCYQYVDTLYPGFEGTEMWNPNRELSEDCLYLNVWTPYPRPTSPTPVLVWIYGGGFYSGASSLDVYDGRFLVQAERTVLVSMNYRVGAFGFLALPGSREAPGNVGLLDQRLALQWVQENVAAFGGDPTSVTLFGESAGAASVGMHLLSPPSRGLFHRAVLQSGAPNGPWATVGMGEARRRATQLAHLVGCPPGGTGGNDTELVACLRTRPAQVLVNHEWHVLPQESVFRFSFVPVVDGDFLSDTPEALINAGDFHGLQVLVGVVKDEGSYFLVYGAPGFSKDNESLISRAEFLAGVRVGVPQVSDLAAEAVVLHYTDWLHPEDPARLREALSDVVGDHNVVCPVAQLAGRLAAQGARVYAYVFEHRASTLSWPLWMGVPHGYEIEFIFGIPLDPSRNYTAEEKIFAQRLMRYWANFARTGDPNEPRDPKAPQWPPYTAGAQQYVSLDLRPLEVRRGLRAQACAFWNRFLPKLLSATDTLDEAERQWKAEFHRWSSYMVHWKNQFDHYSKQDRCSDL

Chain of Cholinesterase (P06276 whole entry): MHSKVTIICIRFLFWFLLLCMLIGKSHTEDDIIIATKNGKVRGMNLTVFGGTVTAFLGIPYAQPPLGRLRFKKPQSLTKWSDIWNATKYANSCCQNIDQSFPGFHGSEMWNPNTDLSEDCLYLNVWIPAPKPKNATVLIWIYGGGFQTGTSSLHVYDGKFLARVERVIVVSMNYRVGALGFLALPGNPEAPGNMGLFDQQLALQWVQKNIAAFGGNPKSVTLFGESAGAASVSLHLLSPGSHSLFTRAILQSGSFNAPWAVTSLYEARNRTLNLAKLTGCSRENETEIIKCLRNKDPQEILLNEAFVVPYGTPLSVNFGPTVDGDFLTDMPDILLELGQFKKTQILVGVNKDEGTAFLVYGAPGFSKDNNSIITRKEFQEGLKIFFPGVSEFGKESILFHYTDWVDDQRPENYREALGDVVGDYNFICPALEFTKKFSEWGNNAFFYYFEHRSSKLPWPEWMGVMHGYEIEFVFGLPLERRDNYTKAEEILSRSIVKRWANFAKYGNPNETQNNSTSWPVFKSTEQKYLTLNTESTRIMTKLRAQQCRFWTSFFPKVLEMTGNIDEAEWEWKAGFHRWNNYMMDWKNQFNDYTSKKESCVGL

Structure (SMILES)	IC50 (Cholinesterase)	IC50 (Acetylcholinesterase)
CCNC(=O)Oc1cccc2c1OCC1CCN(C)C21 (centres undefined)	44.4 nM	420 nM
CCCCCCCNC(=O)Oc1cccc2c1OCC1CCN(C)C21 (centres undefined)	1.26 nM	20.3 nM
CNC(=O)Oc1cccc(C(C)N(C)C)c1 (centres undefined)	406 nM	
CNC(=O)Oc1cccc2c1OCC1CCN(C)C21 (centres undefined)	59.4 nM	30 nM
CNC(=O)Oc1cccc2c1CCC1CCN(C)C21 (centres undefined)	24.5 nM	17.3 nM
CNC(=O)Oc1cccc2c1SCC1CCN(C)C21 (centres undefined)	10.5 nM	8.11 nM
CCNC(=O)Oc1cccc2c1CCC1CCN(C)C21 (centres undefined)	30.3 nM	393 nM
CC(NC(=O)Oc1cccc2c1OCC1CCN(C)C21)c1ccccc1 (centres undefined)	209 nM	
